According to PubChem BioAssay (NCI):
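Briefly, cells in 96-well plates were exposed to five compound concentrations for 48 h, and endpoints were estimated by linear interpolation. At the TGI there is no net growth.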

Legend:
Assay in all cases: NCI tumour cell line growth inhibition, 48 h
XF 498 CNS = tested on: XF 498 CNS
RXF-631 renal = tested on: RXF-631 renal
DMS 273 small cell lung = tested on: DMS 273 small cell lung
M19-MEL melanoma = tested on: M19-MEL melanoma
LXFL 529 NSCLC = tested on: LXFL 529 NSCLC
DMS 114 small cell lung = tested on: DMS 114 small cell lung
DLD-1 colon = tested on: DLD-1 colon
KM20L2 colon = tested on: KM20L2 colon

SMILES	TGI (XF 498 CNS) [µM]	TGI (RXF-631 renal) [µM]	TGI (DMS 273 small cell lung) [µM]	TGI (M19-MEL melanoma) [µM]	TGI (LXFL 529 NSCLC) [µM]	TGI (DMS 114 small cell lung) [µM]	TGI (DLD-1 colon) [µM]	TGI (KM20L2 colon) [µM]
COC1=CC(=O)NCCN1	> 100	> 100	> 100	> 100	> 100	> 100	> 100	> 100
CCN(CC)CCNC(=O)c1nn(-c2ccc(Cl)cc2)c2c1CCc1cc(OC)ccc1-2	17.6	3.16	5.98	7.11	16.4	6.68	14.2	3.32
O=[N+]([O-])c1ccc(COc2cccc3cccnc23)cc1	67.5	33.3	20.8	38.2	> 100	6.92	71.2	> 100
CCN(CC)CC(=O)Nc1ccc2c(c1)C(=O)c1ccc(NC(=O)CN(CC)CC)cc1C2=O	–	–	> 100	> 100	49	37.4	> 100	> 100
CN=C(NC)N(C)c1nc(=[N+](C)C)ss1	–	–	> 100	–	> 100	–	–	–
COc1ccc2c(c1)CCN1C3=C(CCC3)C(=O)C[C@@H]21	> 100	–	> 100	> 100	> 100	> 100	–	> 100
CCCCc1c2c(nc3c1CC/C(=C\c1ccc([N+](=O)[O-])cc1)C3=O)CCCC2	–	–	3.78	4.59	2.68	4.4	3.42	4.01
Cc1cc(C)c(C(=O)/C=C/c2ccccc2)c(C)c1	26.5	–	–	> 100	> 100	88.3	68.9	96.9
COC[C@@H](N=CN1CCc2cc(OC)c(OC)cc2C1)C(C)(C)C	> 100	> 100	–	> 100	> 100	> 100	> 100	> 100
COc1ccc(-c2nc3c(nc2-c2ccc(OC)cc2)N(C)S(=O)(=O)N=C3N)cc1	–	–	> 100	> 100	> 100	72.7	> 100	> 100
